This is an account of results in patent publication US20210371895A1, “BACTERIAL RESPONSE” (BioFire Diagnostics, LLC, priority 2018, published 2021).

The test system of assay [1] is lexA. The assay can be described thus: Pouch panel (+dsDNAse +RT) relative expression level of lexA after ciprofloxacin exposure. The assay is classed as cell-based, Pseudomonas aeruginosa. The following applies: 7.5 or 15 μg/mL ciprofloxacin, 10, 30 and 60 minutes, versus zero ciprofloxacin. An excerpt:
In this illustrative example, a pouch similar to pouch 510 was developed to include a DNase treatment step by including DNAse, illustratively a dsDNAse from Pandalus borealis, freeze dried into the fitment, as well as a slight modification in the elution buffer that is freeze dried into injection channel 515e, although it is understood that this dsDNAse is illustrative only and that other DNAses can be used, as well as other DNA removal methods. For the DNAse step, subsequent to elution, the temperature is raised to a temperature suitable for the DNAse enzyme, illustratively 42° C., followed by reverse-transcription and first-stage multiplex PCR. In this example, the pouch contained 45 different assays of interest (including control genes such as rpoD), targets where mRNA is present in concentrations greater than genomic (“high copy targets”) such as PA14_RS28865, as well as a number of antibiotic resistance gene targets including recA (specific) and lasI (generic) that are present in concentrations lower than genomic. However, it is understood that this panel of assays is illustrative only, and any combination of assays may be used. In one illustrative embodiment, all assays are for RNA targets, illustratively mRNA targets, although other RNA targets may be suitable for detection and/or quantification using the methods provided herein. […]

Assay [2] relates to lexA. Nature of the assay: Benchtop RT-PCR Cp of lexA transcript, strains S1/R1 with ciprofloxacin. The assay is classed as cell-based, P. aeruginosa. As to conditions: 15 μg/mL Ciprofloxacin for 10 minutes, cDNA 1:100 dilution. On the procedure: (§1) P. aeruginosa, two strains: one that is resistant and the other susceptible. • S1=susceptible to Ciprofloxacin • R1=resistant to Ciprofloxacin
(§2) In this example, each strain (S1 and R1) was grown to 0.5 OD600 (-1×10^8 CFU/mL) and each was treated with or without 15 μg/mL of Ciprofloxacin for 10 minutes (two strains, each +/− antibiotic, provides four test conditions). It is understood that the OD and antibiotic incubation time are illustrative only and that other concentrations and times may be used. cDNA was generated by extracting on Magnapure using TNA kit, following bacterial lysis protocol, quantifying using Qubit RNA HS Assay Kit (Q32852), genomic DNA removed and cDNA generated using Maxima H Minus cDNA Kit with dsDNAse (M1682).
For other genes, significant ΔCp was found only in the presence of antibiotics. These “specific antibiotic resistance genes” include lexA, sulA, ptrB, and, PA14_RS07985, with ptrB showing up-regulation in the resistant strain. The amplification curves for lexA are shown in FIG. 5B, where the susceptible strain with antibiotic has a Cp about 2 cycles earlier than the other three conditions. For the other three conditions, the resistant strain with and without antibiotics had essentially the same Cp as the susceptible strain without antibiotics.

A further assay concerns lasI. Nature of the assay: Benchtop RT-PCR Cp of lasI transcript, strains S1/R1 with ciprofloxacin. It counts as cell-based, P. aeruginosa. The following applies: 15 μg/mL Ciprofloxacin for 10 minutes, cDNA 1:100 dilution. On the procedure: as §1, §2
For some of these genes, a similar ΔCp between susceptible and resistant strains was found both with and without the presence of antibiotics. Such genes are referred to as “generic antibiotic resistance genes” as they distinguish between susceptible and resistant strains even in the absence of antibiotics. Several of these generic antibiotic resistance genes are in the quorum sensing pathway or the iron uptake pathway, while the pathway for several others are unknown. These genes included LasI, RhlI, pqsH, pvdE, PepSY, speD, PA14_RS20905, and coA. […]

Consider `O=C(O)c1cn(C2CC2)c2cc(N3CCNCC3)c(F)cc2c1=O` [Ciprofloxacin], for which the “relative expression of lexA (geometric mean normalized Cp)” value is on record as “did not change” in the assay on lexA [1] (resistant strain) and “clear time dependent induction” with lexA [1] (susceptible strain). In addition, the “Cp of lexA amplification curve” value is given as 18.55 with lexA [2] (Resistant strain +ABX) and 16.36 in the assay on lexA [2] (Susceptible strain +ABX). Also, the “Cp of lasI amplification curve” value was 15.15 with lasI (Resistant strain +ABX) and 10.55 with lasI (Susceptible strain +ABX).
